Assay results taken from US8933046B2 (priority 2009, dated 2015).

Key:
[1] = tested on: A549 cells; assay: Influence of TG003 on cell viability (WST-1 assay); assay type: cell-based, human; settings: TG003 50 μM
Experimental: FIG. 18|Influence of the chemical CLK1 inhibitor TG003 on cell viability. A549 cells were incubated with TG003 (50 μM, dissolved in DMSO), with DMSO or left untreated. Cell viability was evaluated at the indicated time points using the WST-1 assay, according to the manufacturer's instructions. Shown are the mean values from three replicates. Error bars indicate the standard deviation.
Determination of host cell viability upon siRNA transfection was performed using cell proliferation assay WST-1 (Roche, Mannheim, Germany). WST-1 reagent was added to the cells 48 h after siRNA transfection and incubated at 37° C. for 1.5 h. Absorbance was measured at 460 nm and at the reference wavelength 590 nm. Non-targeting siRNA Allstars and siPLK1 were used as a […].

[2] = tested on: viral M1 and M2 mRNA (influenza A/WSN/33); assay type: cell-based, influenza A virus
[3] = tested on: viral M1 and M2 protein (influenza A/WSN/33); assay type: cell-based, influenza A virus
[4] = tested on: vesicular stomatitis virus (VSV); assay type: cell-based; settings: TG003 50 μM, A549 pretreated 24 h, VSV MOI 0.01, 24 h p.i.
[5] = tested on: influenza A/WSN/33 (H1N1) virus; assay type: cell-based
[6] = tested on: influenza A/Hamburg/04/2009 (H1N1) virus; assay type: cell-based

Row | Molecule | toxic effects (cell viability, WST-1) [1] | levels of spliced M2 viral RNA [2] | unspliced M1 and NS1/NS2 viral RNA [2] | M1 protein levels [3] | M2 protein levels [3] | replication of vesicular stomatitis virus (VSV) [4] | normalised inhibition of infectious virus particles, siRNA1 [5] | normalised inhibition of infectious virus particles, siRNA2 [5] | normalised inhibition of infectious virus particles, siRNA3 [5] | normalised inhibition of infectious virus particles, siRNA4 [5] | normalised inhibition of infectious virus particles, siRNA1 [6] | normalised inhibition of infectious virus particles, siRNA2 [6] | normalised inhibition of infectious virus particles, siRNA3 [6] | normalised inhibition of infectious virus particles, siRNA4 [6]
1 | CCN1/C(=C/C(C)=O)Sc2ccc(OC)cc21 [TG003] | without exerting detectable toxic effects | reduced | unaffected | remained relatively constant | drastically reduced | only slightly reduced |  |  |  |  |  |  |  | 
2 | WNT3A |  |  |  |  |  |  | 0.36 | −0.16 | 0.64 | 0.81 | 0.53 | 0.4 | 0.91 | 1.1
